Measurements as given in patent publication US10681909B2, “Herbicidal triazoles” (FMC Corporation, priority 2014, dated 2020).

Tests used:
oat, wild = assay: Test C postemergence; assay type: in vivo, Avena fatua
Summary of the method: (§1)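 Seeds were planted in loam soil plus sand and sprayed preemergence. In parallel, potted plants in a peat-based medium were sprayed postemergence at 2 to 18 cm (1- to 4-leaf stage). Compounds were formulated in non-phytotoxic solvent with surfactant.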

corn = assay: Test A postemergence; assay type: in vivo, Zea mays; conditions: 0 to 100 scale (0 no effect, 100 complete control), approx. 10 d
Summary of the method: (§2)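 Test chemicals in a non-phytotoxic solvent with surfactant were applied as a directed soil spray preemergence to seeds sown in loam/sand. Postemergence sprays went to plants 2–10 cm tall at the one- to two-leaf stage. A dash means no result.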

wheat (winter wheat) = assay: Test C postemergence; assay type: in vivo, Triticum aestivum
Summary of the method: as §1

morningglory = assay: Test C postemergence; assay type: in vivo, Ipomoea coccinea
Summary of the method: as §1

chickweed = assay: Test C postemergence; assay type: in vivo, Stellaria media
Summary of the method: as §1

velvetleaf = assay: Test C postemergence; assay type: in vivo, Abutilon theophrasti
Summary of the method: as §1

johnsongrass = assay: Test C postemergence; assay type: in vivo, Sorghum halepense
Summary of the method: as §1

crabgrass, large = assay: Test C postemergence; assay type: in vivo, Digitaria sanguinalis
Summary of the method: as §1

barnyardgrass [1] = assay: Test A postemergence; assay type: in vivo, Echinochloa crus-galli; conditions: 0 to 100 scale (0 no effect, 100 complete control), approx. 10 d
Summary of the method: as §2

kochia = assay: Test C postemergence; assay type: in vivo, Kochia scoparia
Summary of the method: as §1

rice = assay: Test B flooded paddy test; assay type: in vivo, Oryza sativa; conditions: 250 g ai/ha, applied to paddy water at 2-leaf stage, visual rating after 13 to 15 d, scale 0 (no effect) to 100 (complete control)
Summary of the method: (§3)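 Pots were flooded to 3 cm above the soil at treatment, and compounds were applied directly into the paddy water. That depth was held throughout. After 13 to 15 d in a greenhouse, plants were rated visually against untreated controls.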

lambsquarters = assay: Test C postemergence; assay type: in vivo, Chenopodium album
Summary of the method: as §1

foxtail, giant [2] = assay: Test A preemergence; assay type: in vivo, Setaria faberii; conditions: 0 to 100 scale (0 no effect, 100 complete control)
Summary of the method: as §2

ragweed = assay: Test C postemergence; assay type: in vivo, Ambrosia elatior
Summary of the method: as §1

barnyardgrass [3] = assay: Test B flooded paddy test; assay type: in vivo, Echinochloa crus-galli; conditions: 250 g ai/ha, applied to paddy water at 2-leaf stage, visual rating after 13 to 15 d, scale 0 (no effect) to 100 (complete control)
Summary of the method: as §3

foxtail, giant [4] = assay: Test C postemergence; assay type: in vivo, Setaria faberii
Summary of the method: as §1

oilseed rape = assay: Test C postemergence; assay type: in vivo, Brassica napus
Summary of the method: as §1

pigweed [5] = assay: Test A postemergence; assay type: in vivo, Amaranthus retroflexus; conditions: 0 to 100 scale (0 no effect, 100 complete control), approx. 10 d
Summary of the method: as §2

pigweed [6] = assay: Test C postemergence; assay type: in vivo, Amaranthus retroflexus
Summary of the method: as §1

nutsedge, yellow = assay: Test C postemergence; assay type: in vivo, Cyperus esculentus
Summary of the method: as §1

COc1nc(-c2ccc(Cl)cc2)nn1Cc1ccnc(C(F)(F)F)c1 [Compound 28]
Plant response rating (scale of 0 to 100 where 0 is no effect and 100 is complete control) (oat, wild; 31 g ai/ha): 5
Plant response rating (scale of 0 to 100 where 0 is no effect and 100 is complete control) (oat, wild; 62 g ai/ha): 5
Plant response rating (scale of 0 to 100 where 0 is no effect and 100 is complete control) (oat, wild; 125 g ai/ha): 10
Plant response rating (scale of 0 to 100 where 0 is no effect and 100 is complete control) (oat, wild; 250 g ai/ha): 15
Plant response rating, Corn (corn; 125 g ai/ha): 10
Plant response rating, Corn (corn; 500 g ai/ha): 40
Plant response rating (scale of 0 to 100 where 0 is no effect and 100 is complete control) (wheat (winter wheat); 31 g ai/ha): 0
Plant response rating (scale of 0 to 100 where 0 is no effect and 100 is complete control) (wheat (winter wheat); 62 g ai/ha): 5
Plant response rating (scale of 0 to 100 where 0 is no effect and 100 is complete control) (wheat (winter wheat); 125 g ai/ha): 5
Plant response rating (scale of 0 to 100 where 0 is no effect and 100 is complete control) (wheat (winter wheat); 250 g ai/ha): 10
Plant response rating (scale of 0 to 100 where 0 is no effect and 100 is complete control) (morningglory; 31 g ai/ha): 70
Plant response rating (scale of 0 to 100 where 0 is no effect and 100 is complete control) (morningglory; 62 g ai/ha): 60
Plant response rating (scale of 0 to 100 where 0 is no effect and 100 is complete control) (morningglory; 125 g ai/ha): 65
Plant response rating (scale of 0 to 100 where 0 is no effect and 100 is complete control) (morningglory; 250 g ai/ha): 100
Plant response rating (scale of 0 to 100 where 0 is no effect and 100 is complete control) (chickweed; 31 g ai/ha): 80
Plant response rating (scale of 0 to 100 where 0 is no effect and 100 is complete control) (chickweed; 62 g ai/ha): 95
Plant response rating (scale of 0 to 100 where 0 is no effect and 100 is complete control) (chickweed; 125 g ai/ha): 90
Plant response rating (scale of 0 to 100 where 0 is no effect and 100 is complete control) (chickweed; 250 g ai/ha): 90
Plant response rating (scale of 0 to 100 where 0 is no effect and 100 is complete control) (velvetleaf; 31 g ai/ha): 60
Plant response rating (scale of 0 to 100 where 0 is no effect and 100 is complete control) (velvetleaf; 62 g ai/ha): 60
Plant response rating (scale of 0 to 100 where 0 is no effect and 100 is complete control) (velvetleaf; 125 g ai/ha): 65
Plant response rating (scale of 0 to 100 where 0 is no effect and 100 is complete control) (velvetleaf; 250 g ai/ha): 80
Plant response rating (scale of 0 to 100 where 0 is no effect and 100 is complete control) (johnsongrass; 62 g ai/ha): 5
Plant response rating (scale of 0 to 100 where 0 is no effect and 100 is complete control) (johnsongrass; 125 g ai/ha): 10
Plant response rating (scale of 0 to 100 where 0 is no effect and 100 is complete control) (johnsongrass; 250 g ai/ha): 85
Plant response rating (scale of 0 to 100 where 0 is no effect and 100 is complete control) (crabgrass, large; 31 g ai/ha): 10
Plant response rating (scale of 0 to 100 where 0 is no effect and 100 is complete control) (crabgrass, large; 62 g ai/ha): 10
Plant response rating (scale of 0 to 100 where 0 is no effect and 100 is complete control) (crabgrass, large; 125 g ai/ha): 10
Plant response rating (scale of 0 to 100 where 0 is no effect and 100 is complete control) (crabgrass, large; 250 g ai/ha): 30
Plant response rating, Barnyardgrass (barnyardgrass [1]; 125 g ai/ha): 30
Plant response rating, Barnyardgrass (barnyardgrass [1]; 500 g ai/ha): 80
Plant response rating (scale of 0 to 100 where 0 is no effect and 100 is complete control) (kochia; 31 g ai/ha): 95
Plant response rating (scale of 0 to 100 where 0 is no effect and 100 is complete control) (kochia; 62 g ai/ha): 100
Plant response rating (scale of 0 to 100 where 0 is no effect and 100 is complete control) (kochia; 125 g ai/ha): 100
Plant response rating (scale of 0 to 100 where 0 is no effect and 100 is complete control) (kochia; 250 g ai/ha): 100
Plant response rating, Rice, Flood (rice): 30
Plant response rating (scale of 0 to 100 where 0 is no effect and 100 is complete control) (lambsquarters; 31 g ai/ha): 100
Plant response rating (scale of 0 to 100 where 0 is no effect and 100 is complete control) (lambsquarters; 62 g ai/ha): 80
Plant response rating (scale of 0 to 100 where 0 is no effect and 100 is complete control) (lambsquarters; 125 g ai/ha): 98
Plant response rating (scale of 0 to 100 where 0 is no effect and 100 is complete control) (lambsquarters; 250 g ai/ha): 98
Plant response rating, Foxtail, Giant (foxtail, giant [2]; 125 g ai/ha): 100
Plant response rating, Foxtail, Giant (foxtail, giant [2]; 500 g ai/ha, approx. 10 d): 100
Plant response rating (scale of 0 to 100 where 0 is no effect and 100 is complete control) (ragweed; 31 g ai/ha): 25
Plant response rating (scale of 0 to 100 where 0 is no effect and 100 is complete control) (ragweed; 62 g ai/ha): 25
Plant response rating (scale of 0 to 100 where 0 is no effect and 100 is complete control) (ragweed; 125 g ai/ha): 75
Plant response rating (scale of 0 to 100 where 0 is no effect and 100 is complete control) (ragweed; 250 g ai/ha): 75
Plant response rating, Barnyardgrass, Flood (barnyardgrass [3]): 20
Plant response rating (scale of 0 to 100 where 0 is no effect and 100 is complete control) (foxtail, giant [4]; 31 g ai/ha): 15
Plant response rating (scale of 0 to 100 where 0 is no effect and 100 is complete control) (foxtail, giant [4]; 62 g ai/ha): 10
Plant response rating (scale of 0 to 100 where 0 is no effect and 100 is complete control) (foxtail, giant [4]; 125 g ai/ha): 10
Plant response rating (scale of 0 to 100 where 0 is no effect and 100 is complete control) (foxtail, giant [4]; 250 g ai/ha): 10
Plant response rating (scale of 0 to 100 where 0 is no effect and 100 is complete control) (oilseed rape; Oilsee Rape, 250 g ai/ha): 95
Plant response rating (scale of 0 to 100 where 0 is no effect and 100 is complete control) (oilseed rape; Oilseed Rape, 31 g ai/ha): 25
Plant response rating (scale of 0 to 100 where 0 is no effect and 100 is complete control) (oilseed rape; Oilseed Rape, 62 g ai/ha): 55
Plant response rating (scale of 0 to 100 where 0 is no effect and 100 is complete control) (oilseed rape; Oilseed Rape, 125 g ai/ha): 70
Plant response rating, Pigweed (pigweed [5]; 125 g ai/ha): 100
Plant response rating, Pigweed (pigweed [5]; 500 g ai/ha): 100
Plant response rating (scale of 0 to 100 where 0 is no effect and 100 is complete control) (pigweed [6]; 31 g ai/ha): 95
Plant response rating (scale of 0 to 100 where 0 is no effect and 100 is complete control) (pigweed [6]; 62 g ai/ha): 95
Plant response rating (scale of 0 to 100 where 0 is no effect and 100 is complete control) (pigweed [6]; 125 g ai/ha): 98
Plant response rating (scale of 0 to 100 where 0 is no effect and 100 is complete control) (pigweed [6]; 250 g ai/ha): 100
Plant response rating (scale of 0 to 100 where 0 is no effect and 100 is complete control) (nutsedge, yellow; 31 g ai/ha): 5
Plant response rating (scale of 0 to 100 where 0 is no effect and 100 is complete control) (nutsedge, yellow; 62 g ai/ha): 5
Plant response rating (scale of 0 to 100 where 0 is no effect and 100 is complete control) (nutsedge, yellow; 125 g ai/ha): 15
Plant response rating (scale of 0 to 100 where 0 is no effect and 100 is complete control) (nutsedge, yellow; 250 g ai/ha): 10
